Laboratory results: patent publication US5948791A, “Quinoline derivatives for treating malaria” (Hoffmann-La Roche Inc., priority 1995, dated 1999)
Structures can show the parent of a compound that is named as a salt. Where two headings read alike, the source gives them in different places.

Columns and labels:
Plasmodium berghei = assay: animal or person; format: in vivo, Plasmodium berghei (strain ANKA) in mice; settings: Plasmodium berghei, mice, blood smears 48 h after treatment
How it was run: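 Male albino mice (~25 g) infected i.v. on D0 with P. berghei ANKA (0.2 ml of 10^8 parasitized erythrocytes/ml); single s.c. and p.o. dose 24 h post-infection, 10 mg/kg screen then titration.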

Plasmodium falciparum K1 = assay: Growth inhibition of Plasmodium falciparum K1 (chloroquine-resistant) in vitro, [G-3H]-hypoxanthin incorporation; format: cell-based, Plasmodium falciparum (strain K1); settings: for IC50: Plasmodium falciparum, K1, 72 h, read-out: IC50 for P. falciparum K1; for Resistance index: ratio of the IC50 for K1 and the IC50 for NF54
How it was run: (§1)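 Asynchronous intraerythrocytic cultures in human A+ erythrocytes (0.7% parasitemia, 2.5% suspension) in RPMI 1640 with HEPES, NaHCO3 and human serum, exposed to compound titrated over 6-7 steps for 72 h at 37° C, 3% O2. Growth by [G-3H]-hypoxanthin incorporation against untreated controls; IC50 by logit regression.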

[1] = tested on: Plasmodium falciparum strain NF54; assay: Growth inhibition of Plasmodium falciparum NF54 (chloroquine-sensitive) in vitro, [G-3H]-hypoxanthin incorporation; format: cell-based; settings: chloroquine-sensitive strain NF54, 72 h, read-out: IC50 for P. falciparum NF54
How it was run: as §1

[2] = po, single peroral dose of 10 mg/kg, read-out: Growth inhibition in % after po administration (GI%, percentage reduction of the parasitemia)
[3] = sc, single subcutaneous dose of 10 mg/kg, read-out: Growth inhibition in % after sc administration (GI%, percentage reduction of the parasitemia)

CCN(CC)c1ccc(CNC(C)(C)CNc2ccnc3cc(Cl)ccc23)cc1.Cl.Cl.Cl [Example 46, N1-(7-Chloro-quinolin-4-yl)-N2-(4-diethylamino-benzyl)-2-methyl-propane-1,2-diamine trihydrochloride]
inhibition in vivo at 10 mg/kg (Plasmodium berghei; [2]): 99.7%
inhibition in vivo at 10 mg/kg (Plasmodium berghei; [3]): 99%
IC50 (Plasmodium falciparum K1): 0.0126 µg/mL
Resistance index (Plasmodium falciparum K1): 1.2
IC50 [1]: 0.0101 µg/mL

CC(C)(CNc1ccnc2cc(Cl)ccc12)NCc1ccc([N+](=O)[O-])cc1 [Example 47, N1-(7-Chloro-quinolin-4-yl)-N2-(4-nitro-benzyl)-2-methy-propane-1,2-diamine dihydrochloride]
inhibition in vivo at 10 mg/kg (Plasmodium berghei; [2]): 70%
inhibition in vivo at 10 mg/kg (Plasmodium berghei; [3]): 79%
IC50 (Plasmodium falciparum K1): 0.0136 µg/mL
Resistance index (Plasmodium falciparum K1): 1.4
IC50 [1]: 0.0094 µg/mL

CC(C)(CNc1ccnc2cc(Cl)ccc12)NCc1cccc(C#N)c1.Cl.Cl [Example 48, N1-(7-Chloro-quinolin-4-yl)-N2-(3-cyano-benzyl)-2-methyl-propane-1,2-diamine dihydrochloride]
inhibition in vivo at 10 mg/kg (Plasmodium berghei; [2]): 99.9%
inhibition in vivo at 10 mg/kg (Plasmodium berghei; [3]): 99.9%
IC50 (Plasmodium falciparum K1): 0.0159 µg/mL
Resistance index (Plasmodium falciparum K1): 1.3
IC50 [1]: 0.0123 µg/mL

CC(C)(CNc1ccnc2cc(Cl)ccc12)NCc1ccc(C#N)cc1.Cl.Cl [Example 49, N1-(7-Chloro-quinolin-4-yl)-N2-(4-cyano-benzyl)-2-methyl-propane-1,2-diamine dihydrochloride]
inhibition in vivo at 10 mg/kg (Plasmodium berghei; [2]): 88%
inhibition in vivo at 10 mg/kg (Plasmodium berghei; [3]): 87%
IC50 (Plasmodium falciparum K1): 0.0124 µg/mL
Resistance index (Plasmodium falciparum K1): 1.5
IC50 [1]: 0.0082 µg/mL

CC(C)c1ccc(CNC(C)(C)CNc2ccnc3cc(Cl)ccc23)cc1.Cl.Cl [Example 50, N1-(7-Chloro-quinolin-4-yl)-N2-(4-isopropyl-benzyl)-2-methyl-propane-1,2-diamine dihydrochloride]
inhibition in vivo at 10 mg/kg (Plasmodium berghei; [2]): 93%
inhibition in vivo at 10 mg/kg (Plasmodium berghei; [3]): 96%
IC50 (Plasmodium falciparum K1): 0.0143 µg/mL
Resistance index (Plasmodium falciparum K1): 1.0
IC50 [1]: 0.0142 µg/mL

CC(C)(CNc1ccnc2cc(Cl)ccc12)NCc1ccc(-c2ccccc2)cc1 [Example 51, N1-(7-Chloro-quinolin-4-yl)-N2-(bipenyl-4-yl-methyl)-2-methyl-propane-1,2-diamine dihydrochloride]
inhibition in vivo at 10 mg/kg (Plasmodium berghei; [2]): 82%
inhibition in vivo at 10 mg/kg (Plasmodium berghei; [3]): 99%
IC50 (Plasmodium falciparum K1): 0.0091 µg/mL
Resistance index (Plasmodium falciparum K1): 0.7
IC50 [1]: 0.0123 µg/mL

CC(C)(CNc1ccnc2cc(Cl)ccc12)NCc1ccccn1.Cl.Cl.Cl [Example 56, N1-(7-Chloro-quinolin-4-yl)-N2-(pyridin-2-yl-methyl)-2-methyl-propane-1,2-diamine trihydrochloride]
inhibition in vivo at 10 mg/kg (Plasmodium berghei; [2]): 98%
inhibition in vivo at 10 mg/kg (Plasmodium berghei; [3]): 97%
IC50 (Plasmodium falciparum K1): 0.0537 µg/mL
Resistance index (Plasmodium falciparum K1): 1.7
IC50 [1]: 0.0313 µg/mL

CC(C)(CNc1ccnc2cc(Cl)ccc12)NCc1cccnc1.Cl.Cl.Cl [Example 57, N1-(7-Chloro-quinolin-4-yl)-N2-(pyridin-3-yl-methyl)-2-methyl-propane-1,2-diamine trihydrochloride]
inhibition in vivo at 10 mg/kg (Plasmodium berghei; [2]): 99.4%
inhibition in vivo at 10 mg/kg (Plasmodium berghei; [3]): 99.7%
IC50 (Plasmodium falciparum K1): 0.0282 µg/mL
Resistance index (Plasmodium falciparum K1): 1.3
IC50 [1]: 0.0217 µg/mL

CC(C)(CNc1ccnc2cc(Cl)ccc12)NCc1ccnc2ccccc12.Cl.Cl.Cl [Example 58, N1-(7-Chloro-quinolin-4-yl)-N2-(quinolin-4-yl-methyl)-2-methyl-propane-1,2-diamine trihydrochloride]
inhibition in vivo at 10 mg/kg (Plasmodium berghei; [2]): 72%
inhibition in vivo at 10 mg/kg (Plasmodium berghei; [3]): 88%
IC50 (Plasmodium falciparum K1): 0.069 µg/mL
Resistance index (Plasmodium falciparum K1): 2.4
IC50 [1]: 0.0293 µg/mL

Cl.Cl.Clc1ccc2c(N[C@H]3CCCC[C@@H]3NCc3ccccc3)ccnc2c1 [Example 60, (1S,2S)-N1-(7-Chloro-quinolin-4-yl)-N2-(benzyl)-cyclohexane-1,2-diamine hydrochloride (1:2)]
inhibition in vivo at 10 mg/kg (Plasmodium berghei; [2]): 67%
inhibition in vivo at 10 mg/kg (Plasmodium berghei; [3]): 87%
IC50 (Plasmodium falciparum K1): 0.0122 µg/mL
Resistance index (Plasmodium falciparum K1): 1.6
IC50 [1]: 0.0077 µg/mL

Cl.Cl.Clc1ccc(CN[C@H]2CCCC[C@@H]2Nc2ccnc3cc(Cl)ccc23)cc1 [Example 61, (1S,2S)-N1-(7-Chloro-quinolin-4-yl)-N2-(4-chloro-benzyl)-cyclohexane-1,2-diamine dihydrochloride]
inhibition in vivo at 10 mg/kg (Plasmodium berghei; [2]): 99.6%
inhibition in vivo at 10 mg/kg (Plasmodium berghei; [3]): 99.6%
IC50 (Plasmodium falciparum K1): 0.0112 µg/mL
Resistance index (Plasmodium falciparum K1): 0.9
IC50 [1]: 0.0127 µg/mL

Cl.Cl.Clc1ccc(CN[C@H]2CCCC[C@@H]2Nc2ccnc3cc(Cl)ccc23)c(Cl)c1 [Example 62, (1S,2S)-N1-(7-Chloro-quinolin-4-yl)-N2-(2,4-dichloro-benzyl)-cyclohexane-1,2-diamine dihydrochloride]
inhibition in vivo at 10 mg/kg (Plasmodium berghei; [2]): 99.8%
inhibition in vivo at 10 mg/kg (Plasmodium berghei; [3]): 99.8%
IC50 (Plasmodium falciparum K1): 0.0642 µg/mL
Resistance index (Plasmodium falciparum K1): 1.3
IC50 [1]: 0.0508 µg/mL

Cl.Cl.Clc1ccc2c(N[C@H]3CCCC[C@@H]3NCc3ccc(Cl)c(Cl)c3)ccnc2c1 [Example 63, (1S,2S)-N1-(7-Chloro-quinolin-4-yl)-N2-(3,4-dichloro-benzyl)-cyclohexane-1,2-diamine dihydrochloride]
inhibition in vivo at 10 mg/kg (Plasmodium berghei; [2]): 99.9%
inhibition in vivo at 10 mg/kg (Plasmodium berghei; [3]): 99.9%
IC50 (Plasmodium falciparum K1): 0.0146 µg/mL
Resistance index (Plasmodium falciparum K1): 1.4
IC50 [1]: 0.0101 µg/mL

Cl.Cl.FC(F)(F)c1ccc(CN[C@H]2CCCC[C@@H]2Nc2ccnc3cc(Cl)ccc23)c(C(F)(F)F)c1 [Example 64, (1S,2S)-N1-(7-Chloro-quinolin-4-yl)-N2-(2,4-bis-trifluoromethyl-benzyl)-cyclohexane-1,2-diamine dihydrochloride]
inhibition in vivo at 10 mg/kg (Plasmodium berghei; [2]): 87%
inhibition in vivo at 10 mg/kg (Plasmodium berghei; [3]): 66%
IC50 (Plasmodium falciparum K1): 0.0823 µg/mL
Resistance index (Plasmodium falciparum K1): 2.3
IC50 [1]: 0.0357 µg/mL

CN(C)c1ccc(CN[C@H]2CCCC[C@@H]2Nc2ccnc3cc(Cl)ccc23)cc1.Cl.Cl [Example 66, (1S,2S)-N1-(7-Chloro-quinolin-4-yl)-N2-(4-dimethylamino-benzyl)-cyclohexane-1,2-diamine dihydrochloride]
inhibition in vivo at 10 mg/kg (Plasmodium berghei; [2]): 99.9%
inhibition in vivo at 10 mg/kg (Plasmodium berghei; [3]): 99.6%
IC50 (Plasmodium falciparum K1): 0.0105 µg/mL
Resistance index (Plasmodium falciparum K1): 1.9
IC50 [1]: 0.0056 µg/mL

Cl.Cl.N#Cc1ccc(CN[C@H]2CCCC[C@@H]2Nc2ccnc3cc(Cl)ccc23)cc1 [Example 67, (1S,2S)-N1-(7-Chloro-quinolin-4-yl)-N2-(4-cyano-benzyl)-cyclohexane-1,2-diamine dihydrochloride]
inhibition in vivo at 10 mg/kg (Plasmodium berghei; [2]): 99%
inhibition in vivo at 10 mg/kg (Plasmodium berghei; [3]): 99%
IC50 (Plasmodium falciparum K1): 0.023 µg/mL
Resistance index (Plasmodium falciparum K1): 2.5
IC50 [1]: 0.0091 µg/mL

CN(C)c1ccc(CN[C@H]2CC[C@@H](Nc3ccnc4cc(Cl)ccc34)CC2)cc1.Cl.Cl.Cl [Example 69, cis-N1-(7-Chloro-quinolin-4-yl)-N4-(4-dimethylamino-benzyl)-cyclohexane-1,4-diamine trihydrochloride]
inhibition in vivo at 10 mg/kg (Plasmodium berghei; [2]): 100%
inhibition in vivo at 10 mg/kg (Plasmodium berghei; [3]): 100%
IC50 (Plasmodium falciparum K1): 0.0046 µg/mL
Resistance index (Plasmodium falciparum K1): 1.2
IC50 [1]: 0.0037 µg/mL

Cl.Cl.Clc1ccc2c(N[C@H]3CC[C@@H](NCc4ccccc4)CC3)ccnc2c1 [Example 70, cis-N1-(7-Chloro-quinolin-4-yl)-N4-(benzyl)-cyclohexane-1,4-diamine dihydrochloride]
inhibition in vivo at 10 mg/kg (Plasmodium berghei; [2]): 99.9%
inhibition in vivo at 10 mg/kg (Plasmodium berghei; [3]): 99.9%
IC50 (Plasmodium falciparum K1): 0.0066 µg/mL
Resistance index (Plasmodium falciparum K1): 1.7
IC50 [1]: 0.0038 µg/mL

Cl.Cl.Clc1cccc(CN[C@H]2CC[C@@H](Nc3ccnc4cc(Cl)ccc34)CC2)c1 [Example 71, cis-N1-(7-Chloro-quinolin-4-yl)-N4-(3-chloro-benzyl)-cyclohexane-1,4-diamine dihydrochloride]
inhibition in vivo at 10 mg/kg (Plasmodium berghei; [2]): 99.8%
inhibition in vivo at 10 mg/kg (Plasmodium berghei; [3]): 99.9%
IC50 (Plasmodium falciparum K1): 0.0093 µg/mL
Resistance index (Plasmodium falciparum K1): 1.3
IC50 [1]: 0.0071 µg/mL

Cl.Cl.Clc1ccc(CN[C@H]2CC[C@@H](Nc3ccnc4cc(Cl)ccc34)CC2)cc1 [Example 72, cis-N1-(7-Chloro-quinolin-4-yl)-N4-(4-chloro-benzyl)-cyclohexane-1,4-diamine dihydrochloride]
inhibition in vivo at 10 mg/kg (Plasmodium berghei; [2]): 99.5%
inhibition in vivo at 10 mg/kg (Plasmodium berghei; [3]): 99.9%
IC50 (Plasmodium falciparum K1): 0.0112 µg/mL
Resistance index (Plasmodium falciparum K1): 1.0
IC50 [1]: 0.0116 µg/mL

Cl.Cl.Clc1ccc(CN[C@H]2CC[C@@H](Nc3ccnc4cc(Cl)ccc34)CC2)c(Cl)c1 [Example 73, cis-N1-(7-Chloro-quinolin-4-yl)-N4-(2,4-dichloro-benzyl)-cyclohexane-1,4-diamine dihydrochloride]
inhibition in vivo at 10 mg/kg (Plasmodium berghei; [2]): 23%
inhibition in vivo at 10 mg/kg (Plasmodium berghei; [3]): 96%
IC50 (Plasmodium falciparum K1): 0.019 µg/mL
Resistance index (Plasmodium falciparum K1): 1.3
IC50 [1]: 0.015 µg/mL

Cl.Cl.Clc1ccc2c(N[C@H]3CC[C@@H](NCc4ccc(Cl)c(Cl)c4)CC3)ccnc2c1 [Example 74, cis-N1-(7-Chloro-quinolin-4-yl)-N4-(3,4-dichloro-benzyl)-cyclohexane-1,4-diamine dihydrochloride]
inhibition in vivo at 10 mg/kg (Plasmodium berghei; [2]): 83%
inhibition in vivo at 10 mg/kg (Plasmodium berghei; [3]): 84%
IC50 (Plasmodium falciparum K1): 0.0145 µg/mL
Resistance index (Plasmodium falciparum K1): 0.6
IC50 [1]: 0.0233 µg/mL

Cl.Cl.Clc1cc(Cl)cc(CN[C@H]2CC[C@@H](Nc3ccnc4cc(Cl)ccc34)CC2)c1 [Example 75, cis-N1-(7-Chloro-quinolin-4-yl)-N4-(3,5-dichloro-benzyl)-cyclohexane-1,4-diamine dihydrochloride]
inhibition in vivo at 10 mg/kg (Plasmodium berghei; [2]): 99.8%
inhibition in vivo at 10 mg/kg (Plasmodium berghei; [3]): 99.7%
IC50 (Plasmodium falciparum K1): 0.018 µg/mL
Resistance index (Plasmodium falciparum K1): 0.7
IC50 [1]: 0.025 µg/mL
